Results: patent US10058099B2, “Antimicrobial materials and methods” (University of Florida Research Foundation, Inc., priority 2011, dated 2018)
Values after ≈ are worked out from the molar mass of the structure shown. Like-named read-outs stand apart in the source and are kept apart here.

Assays:
E. coli biofilms = assay: Minimum biofilm eradication concentration (MBEC) with the Calgary Biofilm Device; format: cell-based, Escherichia coli K-12; settings: for MBEC (dark) / MBEC (light): E. coli biofilm; for MBEC (dark): 24 h incubation in the dark; for MBEC (light): 1 h near-UV light (300-400 nm)
Description: (§1) Escherichia coli K-12 was obtained from the American Type Culture Collection (ATCC #10798), revived in Luria Broth (LB, Sigma) and stored in LB with 20% (v/v) glycerol at −70° C. Stock cultures maintained on agar (2% Difco) plates of LB were used to inoculate 50 mL cultures in liquid LB. E. coli was grown at 37° C. for 18 h. Bacteria were grown as a microbial biofilm using a Calgary Biofilm Device (CBD), commercially available as the MBEC™ assay, featuring 96 pegs protruding down from a microtiter plate lid and fitting into the wells of a standard 96-well microtiter plate. This device allows 96 identical biofilms to grow on the pegs at a time. Biofilms of E. coli were grown in each well using 150 μL of the culture diluted to 1×10^7 CFU (colony forming unit) following previous calibration. The biofilms were grown at 37° C. for 24 h in a shaker at 150 rpm.
The Minimum biofilm eradication concentration (MBEC) is the lowest concentration at which bacteria from a biofilm fail to regrow. The MBEC was also measured using the CBD and detailed procedure has been described elsewhere.^17, 18, 20 Biofilms were formed and washed as described above. The biofilms were then transferred to a plate containing saline with a gradient concentration of the OPEs (challenge plate). The samples exposed to light were incubated for 1 h in a LuzChem ORG photoreactor using Hitachi FL8BL-B (λ=300-400 nm) lamps, whereas the samples kept in the dark, were incubated for 24 h in a shaker at 150 rpm. The biofilms were then removed from the challenge plate and washed twice in a plate of saline solution to remove traces of OPEs. The biofilms were placed in a plate containing LB media (recovery plate) and sonicated for 10 min in an ultrasonic cleaner (VWR 97043-964) in order to recover the biofilm in the media solution through vibration. The recovery plate containing the biofilms was incubated in the dark at 37° C. for 24 h. To determine the MBEC, the growth of bacteria was evaluated in the recovery plate after incubation. […] Bacterial grown in a specific well indicates regrowth of planktonic bacteria from surviving biofilm, while clear wells indicate the eradication of the biofilms and the lack of bacteria regrowth.

E. coli K12 biofilms = assay: Minimum inhibitory concentration (MIC) with the Calgary Biofilm Device (MBEC assay); format: cell-based, Escherichia coli K-12; settings: 24 h, dark, 37 °C, 90% inhibition of growth, OD 600 nm
Description: To screen the effectiveness of EO-OPEs shown above at killing bacteria residing in a biofilm, a Calgary Biofilm Device (CBD), commercially available as the MBEC™ assay was used to grow 96 equivalent biofilms at a time, and to determine the minimum inhibitory concentration (MIC). After incubating the CBD devise in Escherichia coli (E. coli K12) suspension in LB media for 24 hours, biofilms were uniformly formed on the CBD surface. The E. coli biofilms were then incubated with EO-OPEs for 24 hours to obtain their MIC values.
as §1
The minimum inhibitory concentration (MIC) represents the lowest concentration of antimicrobial required to inhibit the visible growth of a planktonic bacterial population. The MIC was determined using the CBD.^17, 18, 20 Biofilms were formed on the peg surface of the CBD as described above and then transferred to a 96-well microtiter plate containing 200 μL of saline (0.85% NaCl aqueous solution) and washed for 5 min to remove non-adherent bacteria. The biofilms were transferred to a plate containing 200 μL of LB with a gradient concentration of the OPEs (challenge plate). Each concentration was repeated eight times (one row of the plate). The biofilms were then incubated in the dark at 37° C. for 24 h. To determine the MIC, the growth of bacteria was evaluated in the challenge plate after incubation. The optical density of each well was measured at 600 nm and the MIC was calculated for 90% inhibition of growth compared with biofilms grown in LB only.

[1] = Singlet oxygen quantum yield, emission at 1270 nm; format: physicochemical; settings: CD3OD, 2'-acetonaphthone (ΦΔ = 0.79) as actinometer
Source text: We carried out transient absorption experiments in methanol and water solutions. […] The lifetime of the transient absorption is in the microsecond range and in each case it is efficiently quenched by O2 indicating the absorption is due to the triplet excited state. By examination of the initial amplitudes of the transient absorption (ΔA, t=0, Table 1), we were able to qualitatively determine the relative triplet yield of these oligomers. […] To substantiate our hypothesis, we carried out studies to observe singlet oxygen emission in deuterated methanol (as the life time of the singlet oxygen is very short in […]).^21 As anticipated, each of the oligomers is capable of sensitizing the formation of singlet oxygen as observed by its characteristic emission at 1270 nm. Of the oligomers studied, (C) and (E) show a higher quantum yield for singlet oxygen generation (ΦΔ) which corroborates well with the photophysical studies described above.
Absorption and fluorescence spectra were recorded on a Cary 100 UV-Vis spectrophotometer and a Photon Technology International spectrofluorometer, respectively. The optical density of the solutions was adjusted to ˜0.7 at the excitation wavelength (355 nm) with the laser energy set at ˜7 mJ. Solutions were purged with argon for 45 min before making transient absorption spectroscopy measurements. Singlet oxygen quantum yields were measured using a Photon Technology International Quantamaster near-IR spectrophotometer equipped with an InGaAs photodiode detector, optical chopper and a lock in amplifier. See Table 1 and FIGS. 1-2 for results.

S. aureus = assay: Viability of S. aureus cells after UV exposure or dark incubation with oligomer solution; format: cell-based; settings: for killing / deactivation of S. aureus: 10 min UV irradiation, 1 μg/mL printed for EO-OPE-DABCO
Description: FIG. 24 is a graph showing the viability of S. aureus cells with 1 μg/mL and 10 μg/mL of OPE-DABCO and EO-OPE-DABCO solution following exposure to UV light and incubation in dark.
[drawing 28] containing quaternary ammonium pendant groups based on 1,4-diazabicyclo-[2.2.2.]-octane (DABCO). It has been shown that the incorporation of the DABCO group into antimicrobials might amplify its ability to diffuse into the bacterial cell wall due to similarities between this moiety and the lipid layer. [Ref: Kenawy, E. R., S. D. Worley, and R. Broughton, The chemistry and applications of antimicrobial polymers: A state-of-the-art review. Biomacromolecules, 2007. 8(5): p. 1359-1384] Therefore, the binding of antimicrobials to the cytoplasmic membrane of the bacteria is increased by both ionic and van der Waals interactions. [Ref: Kenawy, E. R., S. D. Worley, and R. Broughton, The chemistry and applications of antimicrobial polymers: A state-of-the-art review. Biomacromolecules, 2007. 8(5): p. 1359-1384] These two oligomers have been employed to compare their antimicrobial activity both in the dark and under the UV light in regard to their structure difference.

[2] = Escherichia coli, K12BIOFILMS, read-out: MIC

With `NC[C@H]1O[C@H](O[C@H]2[C@H](O)[C@@H](O[C@H]3O[C@H](CO)[C@@H](O)[C@H](N)[C@H]3O)[C@H](N)C[C@@H]2N)[C@H](O)[C@@H](O)[C@@H]1O` [kanamycin, reference compound] as the compound, how does the “MBEC (dark)” value (E. coli biofilms) read?
Its value is greater than 1000 µg/mL.

What about the MIC (E. coli K12 biofilms; [2]) of the same compound?
The MIC was 11.2 µg/mL (≈ 23.1 µM).

For `CCCCCC[N+]12CC[N+](CCCOc3cc(C#Cc4ccc(C(=O)OCC)cc4)c(OCCC[N+]45CC[N+](CCCCCC)(CC4)CC5)cc3C#Cc3ccc(C(=O)OCC)cc3)(CC1)CC2` [oligomer (A)], which “ΦΔ (quantum yield for singlet oxygen generation)” value [1] is on record?
The value was 0.34 ± 0.03.

What about the “killing of E. coli biofilm under near-UV light exposure” value (E. coli biofilms; 1 h near-UV, in the concentration range tested) of the same compound?
Its value is “did not show any killing”.

And the “dark killing of E. coli biofilm” value (E. coli biofilms; 24 h dark, concentration range <1000 μg/mL)?
The value was “did not exhibit any dark killing”.

What about the “MBEC (light)” value (E. coli biofilms) of the same compound?
Its value is greater than 500 µg/mL.

What about the “MBEC (dark)” value (E. coli biofilms) of the same compound?
The value was greater than 1000 µg/mL.

And the MIC (E. coli K12 biofilms; [2])?
The MIC was 52 µg/mL.

And the MIC (E. coli K12 biofilms)?
The MIC was 51.7 µg/mL.

And the “killing / deactivation of S. aureus” value (S. aureus)?
Its value is roughly 75%.

And the “deactivation of S. aureus with increasing irradiation time” value (S. aureus; UV, irradiation longer than 10 min (FIG. 24))?
Its value is roughly 99%.

Which results are given for `CCCCCC[N+]12CC[N+](CCCOc3ccc(C#Cc4ccc(C#Cc5ccc(OCCC[N+]67CC[N+](CCCCCC)(CC6)CC7)cc5)cc4)cc3)(CC1)CC2` [oligomer (B)]?
ΦΔ (quantum yield for singlet oxygen generation) [1]: 0.20 ± 0.02; MBEC (light) (E. coli biofilms): 60 µg/mL; MBEC (dark) (E. coli biofilms): 200 µg/mL; MIC (E. coli K12 biofilms; [2]): 14 µg/mL; MIC (E. coli K12 biofilms): 14.0 µg/mL; killing / deactivation of S. aureus (S. aureus): 100%; bacteria surviving (S. aureus; S. aureus, 10 min incubation in the dark): < 10%

For `CCCCCC[N+]12CC[N+](CCCOc3ccc(C#Cc4ccc(C#Cc5ccc(OCCC[N+]67CC[N+](CCCCCC)(CC6)CC7)cc5)s4)cc3)(CC1)CC2` [oligomer (C)], which “ΦΔ (quantum yield for singlet oxygen generation)” value [1] is on record?
The value was 0.46 ± 0.02.

And the “MBEC (light)” value (E. coli biofilms)?
Its value is 60 µg/mL.

What about the “MBEC (dark)” value (E. coli biofilms) of the same compound?
The value was 150 µg/mL.

What about the MIC (E. coli K12 biofilms; [2]) of the same compound?
The MIC was 15.8 µg/mL.
